Source: patent publication US20080234232A1, “Methods and compositions for targeting AFAP” (priority 2007, published 2008)

Experiments:
[1] = system: cSrc; assay: Immunofluorescence: translocation of cSrc from the perinuclear region to the cell periphery; type: cell-based, mouse; settings: 100 nM PMA
Experimental: FIG. 2: Inhibition of PI3K blocks translocation of cSrc from the perinuclear region of mouse embryo fibroblast in response to PMA treatment. SYF and p85−/− null cells were transiently transfected with cSrc and labeled for avian cSrc using EC10, an avian-specific monoclonal antibody (1:500). EC10 was visualized with anti-mouse Atexa Fluor 488 (false colored red for consistency). Cells treated with 100 nM PMA (panel b) induced translocation of cSrc to the cell periphery as indicated by the arrows. However, cells treated with 100 nM PMA in conjunction with 6 μM bisindolylmaleimide (panel c) or 10 μM LY (panel d) blocked the translocation of cSrc as indicated by the arrows. […] (n=nucleus) Bars represent 20 μM.
SYF, SYF/cSrc, p85α+/+ and p85−/− cells were cultured in standard culture media. Transient transfections of SYF, SYF/cSrc, p85α+/+ cells for immunofluorescence were carried out using LipofectAMINE™ Reagent (Invitrogen) as per manufacturer's protocol. Briefly, Approximately 5.0-8.0×10^4 cells per well were transfected at 50-70% confluent on coverstips with 2-4 μg of plasmid DNA and incubated for 3-4 hours. Thirty-six hours after transfection, cells were serum starved for 12 hours, treated, and subsequently fixed and permeablized as previously described (Qian, Y. et. al., 1998). Cells were treated with a PKC activator, 100 nM PMA for 5 or 15 minutes or in combination with the following pretreatments; a PKC inhibitor, 6 μM bisindolylmaleimide [I] for six hours; or PI3K inhibitor, 10 μM LY294002 for six hours; 50 nM Wortmannin for 30 minutes; and/or a Src family inhibitor, 5 μM PP1 for six hours. For actin labeling, a 1:500 dilution of TRITC-phalloidin was used as labeled in the figures. Primary antibody concentrations used were diluted in 5% Bovine Serum Albumin (BSA) dissolved in 1× phosphate-buffered saline (PBS): EC10 mAb-1:500; Phospho-Src Family (Y416) pAb-1:250; Anti-PI-3,4,5-P3 mAb-1:100; Anti-AFAP-110 (F1)pAb-1:1000; Anti-cSrc pAb-1:500; Anti-flag-1:1000. […]

[2] = system: PI3K; assay: Immunofluorescence of Ptdlns-3,4,5-P3 production in SYF/cSrc cells; type: cell-based, mouse; settings: 100 nM PMA
Experimental: SYF/cSrc cells were serum-starved for 24 hours. Cells stimulated with 10% serum (panels c-f), 100 nM PMA for 5 (panels g-h), or 15 minutes (panels i-j); as well as treated with 100 nM PMA in combination with 6 μM bisindolylmaleimide [I] (panels k-I) or 50 nM wortmannin (panels m-n). Cells treated with 100 nM PMA in combination with 5 μM PP1 (panel o-p) and Ptdlns-3,4,5-P3 levels evaluated. Cells were immunolabeled with a PI-3,4,5-P3-specific antibody (Echelon, Inc.;1:100) and TRITC-phalloidin (1:500). Secondary antibody for anti-PI-3,4,5-P3 (1:100) was Alexa IgM 647 anti-mouse (1:200). Bars represent 20 μm.
(§1) SYF, SYF/cSrc, p85α+/+ and p85−/− cells were cultured in standard culture media. Transient transfections of SYF, SYF/cSrc, p85α+/+ cells for immunofluorescence were carried out using LipofectAMINE™ Reagent (Invitrogen) as per manufacturer's protocol. Briefly, Approximately 5.0-8.0×10^4 cells per well were transfected at 50-70% confluent on coverstips with 2-4 μg of plasmid DNA and incubated for 3-4 hours. Thirty-six hours after transfection, cells were serum starved for 12 hours, treated, and subsequently fixed and permeablized as previously described (Qian, Y. et. al., 1998). Cells were treated with a PKC activator, 100 nM PMA for 5 or 15 minutes or in combination with the following pretreatments; a PKC inhibitor, 6 μM bisindolylmaleimide [I] for six hours; or PI3K inhibitor, 10 μM LY294002 for six hours; 50 nM Wortmannin for 30 minutes; and/or a Src family inhibitor, 5 μM PP1 for six hours. For actin labeling, a 1:500 dilution of TRITC-phalloidin was used as labeled in the figures. Primary antibody concentrations used were diluted in 5% Bovine Serum Albumin (BSA) dissolved in 1× phosphate-buffered saline (PBS): EC10 mAb-1:500; Phospho-Src Family (Y416) pAb-1:250; Anti-PI-3,4,5-P3 mAb-1:100; Anti-AFAP-110 (F1)pAb-1:1000; Anti-cSrc pAb-1:500; Anti-flag-1:1000. All fluorescent secondary and phalloidin antibodies were diluted 1:200 in 5% BSA, and are labeled according to figure legends. Cells were washed and mounted on slides with Fluoromount-G (Fisher). A Zeiss LSM 510 confocal microscope was used to scan images of about 1 μM in thickness. To prevent cross-contamination between the different fluorochromes, each channel was imaged sequentially using the multitrack recording module before merging the images. For all figures, representative cells are shown (>100 cells examined per image shown).
Ptdlns-3,4,5-P3 production was measured using the anti-Ptdlns-3,4,5-P3 antibody (Echelon, inc.) for analysis by immunofluorescence and contrasted with stress filament integrity, measured using TRITC-phalloidin as previously described (Chen, R. et. al., 2002; Hama, H. et. al., 2004). SYF/cSrc cells were left untreated or treated with serum as controls for PI3K activation. […] In addition, SYF/cSrc cells were stimulated with PMA for 5 or 15 minutes.

[3] = system: AFAP-110 colocalization with cSrc and cSrc activation; assay: Immunofluorescence: PMA-induced colocalization of AFAP-110 with cSrc and cSrc activation in mouse embryo fibroblasts; type: cell-based
Experimental: FIG. 1: LY294002 blocks PMA-induced colocalization between AFAP-110 and cSrc, and subsequent cSrc activation. A) SYF cells transiently co-expressing GFP-AFAP-110 and cSrc were untreated (panels a-d), treated with 100 nM PMA for 15 minutes (panels e-h), or treated with PMA and either 6 μM bisindolylmaleimide (panels i-I), 10 μM LY294002 (panels m-p) or 50 nM Wortmannin (panels q-t). Fixed cells were immunolabeled with avian specific cSrc antibody, EC10 (1:500), and phospho-Src-family (Tyr416) (1:250) as described in the methods section. Secondary antibodies used were Atexa 546 anti-mouse for EC10 and Alexa 647 anti-rabbit for phospho-Src-family (Tyr416). A merged image was generated to determine colocalization between AFAP-110 and cSrc. Bars represent 20 μM.
D) Knockout MEFs (p85−/−) were transfected with GFP-AFAP-110 and cSrc. Fixed cells were immunolabeled with EC10 (1:500) and phospho-Src-family (Tyr416) (1:250) as described in the methods section. Secondary antibodies used were Alexa 546 anti-mouse for EC10 and Alexa 647 anti-rabbit for phospho-Src-family (Tyr416). Cells treated with 100 riM PMA for 15 minutes (panels e-h). Images were merged to determine colocalization of cSrc and GFP-AFAP-110. Bars represent 20 μm. Mouse embryo fibroblast cells that express the p85α isoform of the PI3K regulatory subunit (p85α+/+) were transfected with GFP-AFAP-110 and cSrc. Fixed cells were immunolabeled with EC10 (1:500) and phospho-Src-family (Tyr416) (1:250) as described in the methods section. Secondary antibodies used were Alexa 546 anti-mouse for EC10 and Alexa 647 anti-rabbit for phospho-Src-family (Tyr416). Images were merged to determine colocalization of cSrc and GFP-AFAP-110. Bars represent 20 μm.
as §1
We utilized SYF cell lines as a model system, mouse embryo fibroblasts engineered to contain null mutations in the c-src,fyn, and c-yes genes (Klinghoffer, R. A. et. al., 1999). The cells were transiently co-transfected with constructs that encode cSrc and GFP-tagged AFAP-110, as previously described (Gatesman, A. et. al., 2004). […]

[4] = p85−/− cells, 100 nM PMA 15 min

CCCCCCCCCCCCCC(=O)O[C@@H]1[C@@H](C)[C@@]2(O)[C@@H](C=C(CO)C[C@]3(O)C(=O)C(C)=C[C@@H]23)[C@@H]2C(C)(C)[C@]12OC(C)=O [PMA, Phorbol 12-myristate 13-acetate]
translocation of cSrc on PMA treatment ([1]; SYF cells transfected with cSrc): induced cSrc to translocate from the perinuclear region to the cell periphery
translocation of cSrc on PMA treatment ([1]; p85−/− cells): cSrc remained in the perinuclear region
Ptdlns-3,4,5-P3 production ([2]; 5 minutes): able to induce
Ptdlns-3,4,5-P3 levels ([2]; 15 minutes): consistently reduced
activation of cSrc (anti-phospho-cSrc Y416 immunoreactivity) on PMA treatment ([3]; SYF cells, 100 nM PMA 15 min): evidence for activation of cSrc
colocalization of GFP-AFAP-110 with cSrc on PMA treatment ([3]; SYF cells, 100 nM PMA 15 min): caused GFP-AFAP-110 to colocalize with cSrc
cSrc activation on PMA treatment ([3]; p85α+/+ cells): enables PMA to induce
colocalization of AFAP-110 with cSrc on PMA treatment ([3]; p85α+/+ cells): enables PMA to induce
cSrc activation on PMA treatment [3, 4]: no evidence for cSrc activation
colocalization of AFAP-110 with cSrc on PMA treatment [3, 4]: failed to induce significant colocalization
